Measurements as given in the supplement of paper PMC10331698.
± gives the standard deviation of the averaged measurements.

Legend:
Experiment in all cases: level (log10 ratio to DMSO vehicle control); higher = higher biomarker level / cell amount than vehicle control
Conditions in all cases: in DMSO
[1] = compound: C=C(C)C(=O)OCCC(F)(F)C(F)(F)C(F)(F)C(F)(F)C(F)(C(F)(F)F)C(F)(F)F [(Perfluoro-5-methylhexyl)ethyl 2-methylprop-2-enoate]
Procedure: (§1)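 BioMAP Diversity Plus panel of 12 human primary cell co-culture systems (3C, 4H, LPS, SAg, BT, BF4T, BE3C, CASM3C, HDF3CGF, KF3CT, MyoF, Mphg). Compounds were added 1 h before stimulation and left for 24 h (MyoF 48 h; BT 72 h for soluble read-outs or 6 d for IgG). Biomarkers were read by ELISA, cytotoxicity by SRB, PBMC viability and proliferation by Alamar Blue. Each well value was divided by the mean of 8 DMSO control wells on the same plate and log10 transformed; duplicate blinded samples were tested at 4 concentrations.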

[2] = compound: C=CC(=O)OCC(F)(F)C(F)(F)C(F)(F)C(F)(F)C(F)(F)C(F)(F)C(F)(F)F [1H,1H-Perfluorooctyl acrylate]
Procedure: as §1

Heptafluorobutyramide = compound: NC(=O)C(F)(F)C(F)(F)C(F)(F)F [Heptafluorobutyramide]
Procedure: as §1

Pentafluoropropionamide = compound: NC(=O)C(F)(F)C(F)(F)F [Pentafluoropropionamide]
Procedure: as §1

Perfluorodecanoic acid = compound: O=C(O)C(F)(F)C(F)(F)C(F)(F)C(F)(F)C(F)(F)C(F)(F)C(F)(F)C(F)(F)C(F)(F)F [Perfluorodecanoic acid]
Procedure: as §1

Perfluoroheptanoic acid = compound: O=C(O)C(F)(F)C(F)(F)C(F)(F)C(F)(F)C(F)(F)C(F)(F)F [Perfluoroheptanoic acid]
Procedure: as §1

[3] = compound: O=C(O)C(F)(F)OC(F)(F)C(F)(F)OC(F)(F)F [Perfluoro-3,6-dioxaheptanoic acid]
Procedure: as §1

| Test System | level (log10) ([1]; 6700 nM) | level (log10) ([1]; 20000 nM) | level (log10) ([2]; 6700 nM) | level (log10) ([2]; 20000 nM) | level (log10) ([2]; 60000 nM) | level (log10) (Heptafluorobutyramide; 6700 nM) | level (log10) (Heptafluorobutyramide; 20000 nM) | level (log10) (Heptafluorobutyramide; 60000 nM) | level (log10) (Pentafluoropropionamide; 6700 nM) | level (log10) (Pentafluoropropionamide; 20000 nM) | level (log10) (Pentafluoropropionamide; 60000 nM) | level (log10) (Perfluorodecanoic acid; 6700 nM) | level (log10) (Perfluorodecanoic acid; 20000 nM) | level (log10) (Perfluoroheptanoic acid; 6700 nM) | level (log10) (Perfluoroheptanoic acid; 20000 nM) | level (log10) (Perfluoroheptanoic acid; 60000 nM) | level (log10) ([3]; 6700 nM) | level (log10) ([3]; 20000 nM) | level (log10) ([3]; 60000 nM) |
| --- | --- | --- | --- | --- | --- | --- | --- | --- | --- | --- | --- | --- | --- | --- | --- | --- | --- | --- | --- |
| lMphg:CXCL8/IL-8 | -0.0035 ± 0.011 | 0.006 ± 0.0028 | 0.0185 ± 0.005 | 0.029 ± 0.0071 | 0.0295 ± 0.005 | 0.0095 ± 0.035 | -0.0195 ± 0.0064 | 0.032 ± 0.038 | 0.007 ± 0.0071 | 0.001 ± 0.04 | -0.004 ± 0.013 | 0.0415 ± 0.049 | 0.04 ± 0.023 | -0.0125 ± 0.0035 | 0.032 ± 0.0042 | 0.18 ± 0.035 | 0.026 ± 0.017 | 0.068 ± 0.051 | 0.167 ± 0.074 |
| KF3CT:CCL2/MCP-1 | -0.0235 ± 0.0092 | -0.0125 ± 0.037 | -0.0195 ± 0.022 | -0.0195 ± 0.0021 | -0.016 ± 0.011 | -0.006 ± 0.0014 | -0.009 ± 0.013 | 0.0165 ± 0.057 | -0.0205 ± 0.015 | -0.0285 ± 0.023 | 0.0155 ± 0.071 | -0.127 ± 0.023 | -0.321 ± 0.032 | 0.0165 ± 0.021 | 0.033 ± 0.024 | 0.0255 ± 0.053 | -0.0175 ± 0.016 | -0.0345 ± 0.0078 | 0.0395 ± 0.028 |
| MyoF:CXCL8/IL-8 | -0.011 ± 0.011 | -0.0255 ± 0.0064 | 0.002 ± 0.0099 | 0.037 ± 0.062 | 0.0185 ± 0.036 | -0.0015 ± 0.023 | -0.014 ± 0.011 | 0.002 ± 0.0099 | -0.031 ± 0.013 | -0.026 ± 0.016 | 0.013 ± 0.045 | 0.0205 ± 0.037 | 0.0085 ± 0.016 | 0.002 ± 0.0042 | 0.0205 ± 0.005 | 0.0175 ± 0.035 | -0.0255 ± 0.08 | -0.0035 ± 0.03 | 0.0435 ± 0.019 |
| 3C:CD141/Thrombomodulin | 0.041 ± 0.033 | 0.005 ± 0.033 | -0.027 ± 0.017 | -0.023 ± 0.018 | -0.0455 ± 0.021 | -0.004 ± 0.083 | -0.022 ± 0.099 | -0.047 ± 0.11 | -0.0355 ± 0.032 | -0.0165 ± 0.005 | -0.027 ± 0.018 | -0.019 ± 0.025 | -0.0445 ± 0.012 | 0.0185 ± 0.0035 | 0.0035 ± 0.00071 | 0.0205 ± 0.0021 | -0.037 ± 0.04 | -0.0105 ± 0.044 | -0.0255 ± 0.077 |
| HDF3CGF:Collagen III | -0.0195 ± 0.05 | 0.0105 ± 0.05 | 0.067 ± 0.035 | 0.042 ± 0.04 | -0.0245 ± 0.084 | -0.017 ± 0.014 | -0.006 ± 0.013 | -0.0145 ± 0.005 | 0.026 ± 0.02 | 0.009 ± 0.028 | 0.034 ± 0.0028 | -0.08 ± 0.058 | -0.0755 ± 0.021 | -0.021 ± 0.011 | -0.0385 ± 0.033 | -0.013 ± 0.016 | 0.0025 ± 0.0078 | 0.0225 ± 0.0035 | 0.0375 ± 0.022 |
| KF3CT:SRB | -0.006 ± 0.0014 | 0.003 ± 0.016 | -0.007 ± 0.0014 | -0.0055 ± 0.00071 | -0.002 ± 0.0071 | -0.0055 ± 0.0035 | 0.0025 ± 0.0078 | -0.001 ± 0.011 | -0.006 ± 0.0014 | -0.0025 ± 0.0035 | -0.007 ± 0.023 | -0.0325 ± 0.005 | -0.036 ± 0.0085 | -0.0065 ± 0.005 | -0.006 ± 0.0085 | 0.007 ± 0.016 | 0.0035 ± 0.0021 | -0.0015 ± 0.0021 | -0.0045 ± 0.005 |
| 3C:CD106/VCAM-1 | -0.032 ± 0.0099 | -0.012 ± 0.0085 | -0.0215 ± 0.023 | -0.0245 ± 0.021 | -0.012 ± 0.0028 | -0.0085 ± 0.0021 | -0.01 ± 0.014 | -0.025 | -0.0215 ± 0.013 | -0.009 ± 0.027 | -0.0105 ± 0.005 | -0.0005 ± 0.012 | -0.001 ± 0.021 | 0.0165 ± 0.018 | -0.02 ± 0.0042 | -0.003 ± 0.014 | -0.0185 ± 0.019 | -0.008 ± 0.0071 | -0.001 ± 0.018 |
| HDF3CGF:CCL2/MCP-1 | -0.0335 ± 0.0092 | -0.024 ± 0.023 | -0.0055 ± 0.018 | -0.0235 ± 0.021 | -0.046 ± 0.03 | 0.0005 ± 0.04 | 0.0055 ± 0.036 | 0.0185 ± 0.066 | -0.024 ± 0.034 | -0.0245 ± 0.012 | -0.015 ± 0.031 | -0.0595 ± 0.0078 | 0.042 ± 0.034 | -0.0085 ± 0.0064 | 0.0135 ± 0.00071 | 0.0115 ± 0.016 | 0.0155 ± 0.029 | 0.027 ± 0.023 | 0.0055 ± 0.049 |
| BE3C:MMP-9 | 0.0245 ± 0.039 | 0.022 ± 0.044 | -0.0135 ± 0.025 | -0.013 ± 0.024 | -0.022 ± 0.018 | -0.0135 ± 0.021 | 0.005 ± 0.0071 | 0.0005 ± 0.012 | -0.002 ± 0.011 | -0.02 ± 0.031 | 0.004 ± 0.017 | 0.008 ± 0.014 | -0.458 ± 0.0028 | 0.0015 ± 0.018 | 0.042 ± 0.0014 | 0.0785 ± 0.057 | -0.0395 ± 0.005 | -0.026 ± 0.0042 | -0.019 ± 0.047 |
| lMphg:CD69 | -0.064 ± 0.082 | -0.0825 ± 0.08 | -0.0255 ± 0.012 | -0.016 ± 0.033 | -0.0135 ± 0.013 | -0.0155 ± 0.022 | -0.0145 ± 0.044 | 0.0115 ± 0.066 | -0.021 ± 0.0071 | -0.036 | 0.0125 ± 0.077 | -0.013 ± 0.054 | -0.055 ± 0.052 | -0.019 ± 0.038 | -0.021 ± 0.041 | -0.0205 ± 0.064 | 0.0255 ± 0.069 | 0.0085 ± 0.033 | 0.058 ± 0.0085 |
